Results published in US20220193085A1, “METHODS OF THROMBOPROPHYLAXIS” (JANSSEN PHARMACEUTICALS, INC., priority 2020, published 2022).
“Also recorded” adds a separate entry of the source.

Key:
factor Xa = assay: UNIVERSE PK/PD: anti-Factor Xa activity vs plasma rivaroxaban concentration; assay type: in vivo, pediatric patients
Experimental: (§1) PT and aPTT were determined using an electromagnetic mechanical clot detection method at ARUP laboratory (Salt Lake City, Utah, USA). The PT assay was performed according to the manufacturers' instructions on the STA Compact Hemostasis Workstation (STA Compact coagulation analyzer) using one PT reagent (STA-Neoplastine CI Plus, Diagnostica Stago, Inc), with an International Sensitivity Index (ISI) of around 1.3. The primary read-out for PT was in seconds, as the International Normalization Ratio (INR) which allows for comparison of PT values regardless of the reagents and instruments used for its determination, is only calibrated and validated for VKA and cannot be used for any other anticoagulant without validation. The PT reportable range is between 10 and 120 seconds. […] The read-out for aPTT is in seconds with a reportable range between 5 and 180 seconds. Anti-Factor Xa activity was determined at Eurofins Biomnis (France). Anti-Factor Xa activity was measured using a one-step reaction based on the inhibitory effect of rivaroxaban against factor Xa's activity of generating thrombin from prothrombin after adding rivaroxaban into the plasma-substrate mixture using the STA-COMPACT MAX2® system (Diagnostica Stago, Asnieres-sur-Seine, France). […] The calibration range of the assay is 35 to 500 ng/mL, and the lower limit of quantification (LLOQ) is 35 ng rivaroxaban/mL. […]

[1] = system: prothrombin time (PT), activated partial thromboplastin time (aPTT); assay: UNIVERSE PK/PD: PT and aPTT vs plasma rivaroxaban concentration; assay type: in vivo, pediatric patients; conditions: UNIVERSE vs adult studies ODIXa-HIP2 and ODIXa-KNEE
Experimental: as §1

[2] = human, in vivo
Description: The methods and products of the invention concern dosages that are clinically proven safe and/or effective. Adverse events that impact whether the inventive dose, dosing regimen, treatment or method with rivaroxaban of the present invention are safe are adverse bleeding events that include, for example, major bleeding. “Major bleeding” as used herein is defined in accordance with ISTH criteria as clinically overt bleeding associated with a decrease in hemoglobin of […], a transfusion of the equivalent of […] of packed red blood cells or whole blood, or bleeding at a critical site, or with fatal outcome. Other adverse events include clinically relevant non-major bleeding and trivial (minimal) bleeding.
The primary safety outcome was ISTH defined major bleeding. Major bleeding was defined as overt bleeding and: […]
1) Associated with a fall in hemoglobin of 2 g/dL or more; or 2) Leading to a transfusion of the equivalent of 2 or more units of packed red blood cells or whole blood in adults; or 3) Occurring in a critical site: intracranial, intraspinal, intraocular, pericardial, intraarticular, intramuscular with compartment syndrome, retroperitoneal; or 4) Contributing to death.
The secondary safety outcomes were: Clinically relevant non-major bleeding and trivial (minimal) bleeding events.

[3] = 10 mg QD, N=140, cited from earlier work

Q: Which “Correlation (r) of anti-factor Xa with rivaroxaban plasma concentrations” value (factor Xa; UNIVERSE Part A) does the source give for `O=C(NC[C@H]1CN(c2ccc(N3CCOCC3=O)cc2)C(=O)O1)c1ccc(Cl)s1` [Rivaroxaban, 5-chloro-N-({(5S)-2-oxo-3-[4-(3-oxo-4-morpholinyl)phenyl]-1,3,oxazolidin-5-yl}methyl)-2-thiophenecarboxamide] here?
A: Its value is 0.932.

Q: And the “R-squared of anti-factor Xa activity vs plasma rivaroxaban concentrations” value (factor Xa; UNIVERSE study)?
A: Its value is 0.901.

Q: And the “PT vs rivaroxaban concentration compared with adult reference” value [1]?
A: The value was “within the 99% prediction range observed in the adult reference studies”.

Q: What about the “aPTT vs rivaroxaban concentration compared with adult reference” value [1] of the same compound?
A: Its value is “within the 99% prediction range observed in the adult reference studies; also recorded: less steep in comparison to adult reference”.

Q: And the “CRNM bleeding: Hematoma, subjects n (%)” value [2]?
A: Its value is 0.

Q: And the “CRNM bleeding: Subconjunctival, subjects n (%)” value [2]?
A: Its value is 0.

Q: And the “Clinically relevant non-major (CRNM) bleeding, % of subjects” value [2]?
A: Its value is “(6.3%)”.

Q: What about the “Clinically relevant non-major (CRNM) bleeding, No. of subjects with event” value [2] of the same compound?
A: Its value is 4/64.

Q: And the “Clinically relevant non-major bleeding, subjects n (%)” value [2]?
A: Its value is 5.

Q: What about the “Fall in hemoglobin ≥2 g/dL or transfusion of the equivalent ≥2 units of packed red blood cell or whole blood in adults, No. of subjects with event” value [2] of the same compound?
A: The value was 1/64.

Q: What about the “Fall in hemoglobin ≥2 g/dL or transfusion of the equivalent ≥2 units, % of subjects” value [2] of the same compound?
A: The value was “(1.6%)”.

Q: What about the “Fatal or critical site bleeding, No. of subjects with event” value [2] of the same compound?
A: The value was 0.

Q: What about the “Major and clinically relevant non-major bleeding, % of subjects” value [2] of the same compound?
A: Its value is “(7.8%)”.

Q: What about the “Major and clinically relevant non-major bleeding, No. of subjects with event” value [2] of the same compound?
A: The value was 5/64.

Q: What about the “Major bleeding (ISTH), % of subjects” value [2] of the same compound?
A: Its value is “(1.3%)”.

Q: And the “Major bleeding (ISTH), subjects n (%)” value [2]?
A: Its value is 1.

Q: What about the “Major bleeding (primary safety outcome), % of subjects” value [2] of the same compound?
A: The value was “(1.6%)”.

Q: And the “Major bleeding (primary safety outcome), No. of subjects with event” value [2]?
A: Its value is 1/64.

Q: And the “Trivial (minimal) bleeding, % of subjects” value [2]?
A: The value was “(32.8%)”.

Q: What about the “Trivial (minimal) bleeding, No. of subjects with event” value [2] of the same compound?
A: Its value is 21/64.

Q: What about the “Trivial bleeding, subjects n (%)” value [2] of the same compound?
A: Its value is 24.

Q: What about the “Trivial bleeding: GI-Lower, subjects n (%)” value [2] of the same compound?
A: Its value is 0.

Q: And the “AUC24h,ss geometric mean (90% CI)” value ([3]; Adult reference ODIXa-HIP-OD)?
A: The value was 1494 µg·h/L.

Q: And the “AUC24h,ss median (range)” value ([3]; Adult reference)?
A: Its value is 1452 µg·h/L.

Q: And the “Cmax,ss geometric mean (90% CI)” value ([3]; Adult reference)?
A: The value was 125.8 µg/L.

Q: What about the “Cmax,ss median (range)” value ([3]; Adult reference) of the same compound?
A: Its value is 127.6 µg/L.

Q: And the “Ctrough,ss geometric mean (90% CI)” value ([3]; Adult reference)?
A: The value was 13.9 µg/L.

Q: What about the “Ctrough,ss median (range)” value ([3]; Adult reference) of the same compound?
A: The value was 14.3 µg/L.
